Results on three compounds are retold here after US7183375B2, “Inhibitors for continuous activation for calcineurin” (Agencey of Industrial Science and Technology, priority 2002, dated 2007).

Experiment [1] concerns calcineurin subunit A (CaNA). Put plainly: Cleavage of CaNA in cultured neuronal cells after glutamic acid addition (Western blotting). The experiment is classed as cell-based, Wister rat. To be noted: peptides of SEQ Nos. 5 and 6 at 1 μM; glutamic acid 500 μM, 15 minutes; cells collected at 3 hours and 24 hours; FIG. 1. As for the experimental part:
(§1) After the brain hippocampus from 18 days embryo of Wister rat had been removed, it was treated with PBS containing 0.05% trypsin for 15 minutes at 37° C. After the neuronal cells were suspended with a glass pipet, 1×10^6 cells were cultured in a 3.5 cm diameter culture dish which was previously coated with poly-D-lysine. As the medium, 3 ml Neuro Basal medium (available from Invitrogen, Inc.) complemented with B27 supplement (0.03 ml; available from Invitrogen, Inc.), penicillin (100 units/ml in the final concentration; available from Invitrogen, Inc.) and streptomycin (100 μg/ml in the final concentration; available from Invitrogen, Inc.) was used and the cultivation was carried out in carbon dioxide incubator (5% CO2, 37° C.).
The peptides of above-mentioned SEQ Nos. 5 and 6 were added in the culture solution with the final concentration of 1 μM 10 days after beginning of culture, and it was incubated in carbon dioxide incubator (5% CO2, 37° C.). Three hours after the addition, glutamic acid was added in the final concentration of 500 μM, and it was incubated for 15 minutes. The culture solution was then exchanged, and it was further cultured. The cells were collected at 3 hours and 24 hours after glutamic acid was added, were disrupted by ultrasonic wave in 1% SDS solution, and the SDS-PAGE buffer was added thereto. […]
Background: Immunoblotting shows a protein as a band on a membrane.

The next experiment has as its system neuronal cells. Put plainly: Neuronal cell death induced by glutamic acid (TUNEL staining, TUNEL positive cell count). It counts as cell-based, Wister rat. To be noted: peptides of SEQ Nos. 5 and 6 1 μM, FK506 1 μM, ALLM 25 μM; glutamic acid 500 μM; TUNEL at 3, 6, 12 or 24 hours; FIG. 2. As to the method:
as §1
The neuronal cells were cultured in the same manner as in Example 1, and then the above-mentioned peptides of SEQ Nos. 5 and 6 were added in the final concentration of 1 μM in the same manner as in Example 1. The calcineurin inhibitor, FK506 (available from Fujisawa pharmaceutical Co., Ltd.; the final concentration of 1 μM) or calpain inhibitor, ALLM (available from Merck & Co., Inc.; the final concentration of 25 μM) was added as a control. After 2 hours incubation with each reagent, glutamic acid was added in the final concentration of 500 μM, followed by 15 minutes incubation. […] The TUNEL positive cell was counted.

The next experiment concerns neuronal cell death. To be noted: reported in literature (Morioka 1999; Springer 2000); cited from earlier work.

Where a SMILES comes first, the peptide text is derived from it. Where no end group is shown, it is not given here.

For the compound “cleavage inhibiting peptide: peptides of SEQ Nos. 5 and 6 added together to the culture solution, 1 μM final concentration (chain 1 RRRRRRRRRRFDGATAAARKEVIRNK; chain 2 RRRRRRRRRRREESESVLTLKGLTPTG; also: mixture of two peptides added together)”, the “cleavage of calcineurin caused by the addition of glutamic acid” value in experiment [1] was “inhibited”. Moreover, the “neuronal cell death induced by glutamic acid” value with neuronal cells is on record as “suppressive effect”.

On to cyclosporin A, for which, in the experiment with neuronal cell death, the neuronal cell death result is “suppresses neuronal cell death”.

`CSCC[C@@H](C=O)NC(=O)[C@H](CC(C)C)NC(=O)[C@H](CC(C)C)NC(C)=O` [ALLM] (Ac-Leu-Leu-Met-aldehyde): the “neuronal cell death induced by glutamic acid” value in the experiment with neuronal cells is “same degree”.
